Measurements reported in PMC9133015 (Nature Communications, 2022).
Several values for one entry are separate records, joined by “and”; a condition that tells them apart may be missing. Equal values may be shown once.

Key:
Assay in all cases: Kinase inhibitor specificity profiling (Reaction Biology Corporation)
Assay type in all cases: biochemical
Design in all cases: % Enzyme Activity (relative to DMSO controls): concentration or dose not given beside the values
[1] = molecular target: T1, panel of 370 protein kinases (Homo sapiens, UniProt Q9Y2H1); conditions: 2 h, kinase STK38L/NDR2; read-out: % Enzyme Activity (relative to DMSO controls)
T1 construct: purchased Reaction Biology Corporation (assay service)

[2] = molecular target: T2, panel of 370 protein kinases (Homo sapiens, UniProt P51812); conditions: 2 h, kinase RSK2; read-out: % Enzyme Activity (relative to DMSO controls)
T2 construct: purchased Reaction Biology Corporation (assay service)

[3] = molecular target: T3, panel of 370 protein kinases (Homo sapiens, UniProt P35968); conditions: 2 h, kinase KDR/VEGFR2; read-out: % Enzyme Activity (relative to DMSO controls)
T3 construct: purchased Reaction Biology Corporation (assay service)

[4] = molecular target: T4, panel of 370 protein kinases (Homo sapiens, UniProt Q9BXA6); conditions: 2 h, kinase SSTK/TSSK6; read-out: % Enzyme Activity (relative to DMSO controls)
T4 construct: purchased Reaction Biology Corporation (assay service)

[5] = molecular target: T5, panel of 370 protein kinases (Homo sapiens, UniProt P00519); conditions: 2 h, kinase ABL1; read-out: % Enzyme Activity (relative to DMSO controls)
T5 construct: purchased Reaction Biology Corporation (assay service)

[6] = molecular target: T6, panel of 370 protein kinases (Homo sapiens, UniProt P45985); conditions: 2 h, kinase MKK4; read-out: % Enzyme Activity (relative to DMSO controls)
T6 construct: purchased Reaction Biology Corporation (assay service)

[7] = molecular target: T7, panel of 370 protein kinases (Homo sapiens, UniProt Q9UHD2); conditions: 2 h, kinase TBK1; read-out: % Enzyme Activity (relative to DMSO controls)
T7 construct: purchased Reaction Biology Corporation (assay service)

[8] = molecular target: T8, panel of 370 protein kinases (Homo sapiens, UniProt Q02763); conditions: 2 h, kinase TIE2/TEK; read-out: % Enzyme Activity (relative to DMSO controls)
T8 construct: purchased Reaction Biology Corporation (assay service)

[9] = molecular target: T9, panel of 370 protein kinases (Homo sapiens, UniProt Q9NR20); conditions: 2 h, read-out: % Enzyme Activity (relative to DMSO controls), kinase DYRK4
T9 construct: purchased Reaction Biology Corporation (assay service)

[10] = molecular target: T10, panel of 370 protein kinases (Homo sapiens, UniProt Q15418); conditions: 2 h, kinase RSK1; read-out: % Enzyme Activity (relative to DMSO controls)
T10 construct: purchased Reaction Biology Corporation (assay service)

[11] = molecular target: T11, panel of 370 protein kinases (Homo sapiens, UniProt P35916); conditions: 2 h, kinase FLT4/VEGFR3; read-out: % Enzyme Activity (relative to DMSO controls)
T11 construct: purchased Reaction Biology Corporation (assay service)

[12] = molecular target: T12, panel of 370 protein kinases (Homo sapiens, UniProt Q13976); conditions: 2 h, kinase PKG1a; read-out: % Enzyme Activity (relative to DMSO controls)
T12 construct: purchased Reaction Biology Corporation (assay service)

[13] = molecular target: T13, panel of 370 protein kinases (Homo sapiens, UniProt Q9P1W9); conditions: 2 h, kinase PIM2; read-out: % Enzyme Activity (relative to DMSO controls)
T13 construct: purchased Reaction Biology Corporation (assay service)

[14] = molecular target: T14, panel of 370 protein kinases (Homo sapiens, UniProt Q86V86); conditions: 2 h, kinase PIM3; read-out: % Enzyme Activity (relative to DMSO controls)
T14 construct: purchased Reaction Biology Corporation (assay service)

[15] = molecular target: T15, panel of 370 protein kinases (Homo sapiens, UniProt Q99759); conditions: 2 h, kinase MEKK3; read-out: % Enzyme Activity (relative to DMSO controls)
T15 construct: purchased Reaction Biology Corporation (assay service)

[16] = molecular target: T16, panel of 370 protein kinases (Homo sapiens, UniProt O14578); conditions: kinase STK21/CIT
T16 construct: purchased Reaction Biology Corporation (assay service)

[17] = molecular target: T17, panel of 370 protein kinases (Homo sapiens, UniProt Q8N568); conditions: 2 h, kinase DCAMKL2; read-out: % Enzyme Activity (relative to DMSO controls)
T17 construct: purchased Reaction Biology Corporation (assay service)

[18] = molecular target: T18, panel of 370 protein kinases (Homo sapiens, UniProt Q9UQM7); conditions: 2 h, kinase CAMK2a; read-out: % Enzyme Activity (relative to DMSO controls)
T18 construct: purchased Reaction Biology Corporation (assay service)

[19] = molecular target: T19, panel of 370 protein kinases (Homo sapiens, UniProt Q9Y463); conditions: 2 h, kinase DYRK1B; read-out: % Enzyme Activity (relative to DMSO controls)
T19 construct: purchased Reaction Biology Corporation (assay service)

[20] = molecular target: T20, panel of 370 protein kinases (Homo sapiens, UniProt O75385); conditions: kinase ULK1
T20 construct: purchased Reaction Biology Corporation (assay service)

[21] = molecular target: T21, panel of 370 protein kinases (Homo sapiens, UniProt O14757); conditions: kinase CHK1
T21 construct: purchased Reaction Biology Corporation (assay service)
T21 sequence (O14757 whole entry): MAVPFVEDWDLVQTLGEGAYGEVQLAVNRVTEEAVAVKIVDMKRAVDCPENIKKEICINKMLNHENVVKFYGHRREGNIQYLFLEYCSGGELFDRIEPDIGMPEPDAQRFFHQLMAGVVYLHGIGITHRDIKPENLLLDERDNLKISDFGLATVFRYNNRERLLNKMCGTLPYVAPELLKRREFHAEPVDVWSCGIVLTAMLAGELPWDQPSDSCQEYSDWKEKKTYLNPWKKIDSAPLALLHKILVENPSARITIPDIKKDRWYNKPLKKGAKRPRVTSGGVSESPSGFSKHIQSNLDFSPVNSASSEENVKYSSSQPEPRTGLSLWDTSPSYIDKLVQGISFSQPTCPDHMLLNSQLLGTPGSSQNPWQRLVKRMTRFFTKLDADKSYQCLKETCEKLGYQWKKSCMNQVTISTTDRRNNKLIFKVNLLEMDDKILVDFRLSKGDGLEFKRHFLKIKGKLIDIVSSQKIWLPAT

T16 sequence (O14578 whole entry): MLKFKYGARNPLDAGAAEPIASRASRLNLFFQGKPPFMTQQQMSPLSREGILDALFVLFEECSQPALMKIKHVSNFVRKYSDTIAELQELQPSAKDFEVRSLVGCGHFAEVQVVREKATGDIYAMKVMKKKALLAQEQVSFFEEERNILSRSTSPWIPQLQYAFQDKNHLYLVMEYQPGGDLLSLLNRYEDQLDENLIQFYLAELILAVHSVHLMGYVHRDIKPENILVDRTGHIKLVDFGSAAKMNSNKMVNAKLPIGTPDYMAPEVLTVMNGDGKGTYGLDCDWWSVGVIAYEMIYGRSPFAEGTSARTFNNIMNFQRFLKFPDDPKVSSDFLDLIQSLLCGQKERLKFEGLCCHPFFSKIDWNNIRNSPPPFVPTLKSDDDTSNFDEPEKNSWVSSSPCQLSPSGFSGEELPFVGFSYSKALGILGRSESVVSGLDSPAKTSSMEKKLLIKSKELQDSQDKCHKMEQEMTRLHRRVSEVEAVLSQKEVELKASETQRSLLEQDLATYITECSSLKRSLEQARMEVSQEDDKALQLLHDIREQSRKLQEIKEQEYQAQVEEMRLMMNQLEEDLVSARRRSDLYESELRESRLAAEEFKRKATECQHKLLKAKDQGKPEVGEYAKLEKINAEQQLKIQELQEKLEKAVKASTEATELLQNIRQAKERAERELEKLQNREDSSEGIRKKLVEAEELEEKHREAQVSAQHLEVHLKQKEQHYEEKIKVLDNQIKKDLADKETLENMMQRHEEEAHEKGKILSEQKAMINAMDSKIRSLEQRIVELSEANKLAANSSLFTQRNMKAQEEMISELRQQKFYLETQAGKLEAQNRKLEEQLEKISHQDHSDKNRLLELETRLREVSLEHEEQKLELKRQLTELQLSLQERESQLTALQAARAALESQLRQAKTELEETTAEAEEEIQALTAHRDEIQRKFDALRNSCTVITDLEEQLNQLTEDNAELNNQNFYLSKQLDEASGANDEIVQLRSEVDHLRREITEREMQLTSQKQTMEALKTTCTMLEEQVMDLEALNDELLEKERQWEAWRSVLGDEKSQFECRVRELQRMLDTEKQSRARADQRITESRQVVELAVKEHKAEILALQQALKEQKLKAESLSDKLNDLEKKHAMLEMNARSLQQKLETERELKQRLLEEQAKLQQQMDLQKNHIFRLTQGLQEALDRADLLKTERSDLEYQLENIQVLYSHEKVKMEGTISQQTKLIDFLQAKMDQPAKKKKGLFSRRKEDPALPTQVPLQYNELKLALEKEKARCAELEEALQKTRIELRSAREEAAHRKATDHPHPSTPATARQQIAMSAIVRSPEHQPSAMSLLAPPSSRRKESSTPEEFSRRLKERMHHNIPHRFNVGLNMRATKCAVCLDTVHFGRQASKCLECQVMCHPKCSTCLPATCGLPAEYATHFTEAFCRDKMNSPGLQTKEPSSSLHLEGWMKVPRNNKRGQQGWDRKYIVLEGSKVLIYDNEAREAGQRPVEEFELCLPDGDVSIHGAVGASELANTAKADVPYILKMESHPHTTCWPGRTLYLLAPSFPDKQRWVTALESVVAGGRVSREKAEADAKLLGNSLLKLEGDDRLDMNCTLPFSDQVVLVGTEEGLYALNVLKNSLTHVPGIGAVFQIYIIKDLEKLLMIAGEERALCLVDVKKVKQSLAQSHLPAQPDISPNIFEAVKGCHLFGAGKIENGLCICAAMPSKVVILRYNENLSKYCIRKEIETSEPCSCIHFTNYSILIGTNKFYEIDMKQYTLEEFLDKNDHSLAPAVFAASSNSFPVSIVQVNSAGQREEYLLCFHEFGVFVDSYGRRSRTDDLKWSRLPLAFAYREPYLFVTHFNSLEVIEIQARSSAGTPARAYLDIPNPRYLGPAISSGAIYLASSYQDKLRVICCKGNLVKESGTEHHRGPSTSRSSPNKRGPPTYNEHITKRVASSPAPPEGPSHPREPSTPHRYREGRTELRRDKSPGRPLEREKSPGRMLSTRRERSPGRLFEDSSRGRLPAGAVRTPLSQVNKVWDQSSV
T20 sequence (O75385 whole entry): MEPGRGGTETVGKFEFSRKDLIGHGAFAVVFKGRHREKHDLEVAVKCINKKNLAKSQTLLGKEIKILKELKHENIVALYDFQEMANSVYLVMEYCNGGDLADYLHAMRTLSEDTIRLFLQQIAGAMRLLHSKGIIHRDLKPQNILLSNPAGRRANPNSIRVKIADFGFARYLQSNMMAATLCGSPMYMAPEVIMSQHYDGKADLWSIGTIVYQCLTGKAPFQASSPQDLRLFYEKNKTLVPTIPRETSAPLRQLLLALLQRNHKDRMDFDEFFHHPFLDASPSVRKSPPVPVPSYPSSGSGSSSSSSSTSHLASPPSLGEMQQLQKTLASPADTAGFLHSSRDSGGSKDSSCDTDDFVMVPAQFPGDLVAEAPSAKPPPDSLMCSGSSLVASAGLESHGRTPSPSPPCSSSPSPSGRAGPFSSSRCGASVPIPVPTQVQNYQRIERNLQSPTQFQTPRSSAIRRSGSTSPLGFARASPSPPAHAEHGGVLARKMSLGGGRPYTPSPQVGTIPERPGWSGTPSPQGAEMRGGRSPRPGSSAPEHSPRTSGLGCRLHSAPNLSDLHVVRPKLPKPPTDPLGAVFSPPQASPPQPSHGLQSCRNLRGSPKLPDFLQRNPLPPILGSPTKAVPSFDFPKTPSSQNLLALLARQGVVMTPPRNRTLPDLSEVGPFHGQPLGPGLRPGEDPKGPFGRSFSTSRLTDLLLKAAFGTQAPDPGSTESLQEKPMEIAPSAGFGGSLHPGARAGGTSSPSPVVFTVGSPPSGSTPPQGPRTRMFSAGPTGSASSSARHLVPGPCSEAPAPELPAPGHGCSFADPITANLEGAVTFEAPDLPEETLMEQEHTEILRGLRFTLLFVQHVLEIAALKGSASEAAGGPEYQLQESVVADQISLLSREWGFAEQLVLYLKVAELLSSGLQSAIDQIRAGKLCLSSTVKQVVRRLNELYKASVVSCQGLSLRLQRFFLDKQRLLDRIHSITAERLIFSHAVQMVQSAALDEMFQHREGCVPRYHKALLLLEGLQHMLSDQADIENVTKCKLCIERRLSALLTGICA
T8 sequence (Q02763 23-1124): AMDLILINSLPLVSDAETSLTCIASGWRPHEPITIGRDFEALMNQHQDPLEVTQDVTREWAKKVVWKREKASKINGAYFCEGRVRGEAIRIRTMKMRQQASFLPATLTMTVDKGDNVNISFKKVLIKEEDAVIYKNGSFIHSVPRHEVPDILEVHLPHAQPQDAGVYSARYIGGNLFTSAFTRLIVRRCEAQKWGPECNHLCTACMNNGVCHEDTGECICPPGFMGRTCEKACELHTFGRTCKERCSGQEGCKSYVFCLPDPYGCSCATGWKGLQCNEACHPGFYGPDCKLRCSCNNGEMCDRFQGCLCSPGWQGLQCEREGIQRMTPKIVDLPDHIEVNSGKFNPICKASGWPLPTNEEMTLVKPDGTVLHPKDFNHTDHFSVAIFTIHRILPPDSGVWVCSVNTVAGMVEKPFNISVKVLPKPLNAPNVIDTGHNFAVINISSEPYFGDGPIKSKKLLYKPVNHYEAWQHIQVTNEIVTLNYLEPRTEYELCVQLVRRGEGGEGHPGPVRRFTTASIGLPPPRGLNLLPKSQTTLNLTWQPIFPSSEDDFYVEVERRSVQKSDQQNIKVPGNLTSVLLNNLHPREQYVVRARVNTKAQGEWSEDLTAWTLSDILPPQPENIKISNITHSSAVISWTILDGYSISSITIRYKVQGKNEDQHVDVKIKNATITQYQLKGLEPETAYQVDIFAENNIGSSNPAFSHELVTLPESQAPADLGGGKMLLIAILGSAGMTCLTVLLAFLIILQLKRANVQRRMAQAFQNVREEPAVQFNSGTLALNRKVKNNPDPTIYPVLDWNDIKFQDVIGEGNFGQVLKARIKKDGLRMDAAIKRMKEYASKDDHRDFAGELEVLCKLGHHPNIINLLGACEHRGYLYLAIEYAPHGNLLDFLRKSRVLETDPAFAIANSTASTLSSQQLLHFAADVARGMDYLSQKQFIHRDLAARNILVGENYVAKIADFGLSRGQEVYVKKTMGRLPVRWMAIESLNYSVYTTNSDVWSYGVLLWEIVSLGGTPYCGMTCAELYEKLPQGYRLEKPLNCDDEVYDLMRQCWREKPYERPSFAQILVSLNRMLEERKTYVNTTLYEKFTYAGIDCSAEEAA
T4 sequence (Q9BXA6 whole entry): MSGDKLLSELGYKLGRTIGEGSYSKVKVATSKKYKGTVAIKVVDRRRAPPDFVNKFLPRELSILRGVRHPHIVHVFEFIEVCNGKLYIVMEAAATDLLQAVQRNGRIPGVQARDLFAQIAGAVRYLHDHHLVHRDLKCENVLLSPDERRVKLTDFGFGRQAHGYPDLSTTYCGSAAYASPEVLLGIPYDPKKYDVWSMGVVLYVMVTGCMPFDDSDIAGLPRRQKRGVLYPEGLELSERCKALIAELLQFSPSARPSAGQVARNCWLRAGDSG

With `CCN1CCN(C(=O)c2ccc(Nc3ncc(F)c(-c4ccc5nc(N(C)C)sc5c4)n3)nc2)CC1` [YK-2-69] the remaining activity at 1 µM [1] was 95.4%, the remaining activity at 1 µM [2] was 74.5% and the remaining activity at 1 µM [3] was 88.6%. It also gave a remaining activity at 1 µM [4] of 107%, a remaining activity at 1 µM [5] of 85% and a remaining activity at 1 µM [6] of 87.2%. The remaining activity at 1 µM [7] was 93.1%, the remaining activity at 1 µM [8] was 87.6% and the remaining activity at 1 µM [9] was 50%. It also gave a remaining activity at 1 µM [10] of 102%, a remaining activity at 1 µM [11] of 75.2% and a remaining activity at 1 µM [12] of 92.2%. For the same molecule, the remaining activity at 1 µM [13] was 90.4%, the remaining activity at 1 µM [14] was 55.8% and the remaining activity at 1 µM [15] was 106%. For the same molecule, the “% Enzyme Activity (relative to DMSO controls)” value [16] was 95.11% and 94.67%, the remaining activity at 1 µM [17] was 108% and the remaining activity at 1 µM [18] was 37.5%. The remaining activity at 1 µM [19] was 40.7%, the “% Enzyme Activity (relative to DMSO controls)” value [20] was 101.30% and 99.93% and the “% Enzyme Activity (relative to DMSO controls)” value [21] was 90.61% and 88.71%.
